We go through two compounds from PMC7002685, “Inhibition of vascular calcification by inositol phosphates derivatized with ethylene glycol oligomers” (Nature Communications, 2020).

“And” between values parts separate entries of the source, which are not always exact repeats. Equal values may be shown once.

For data set [1], the system named is primary human VSMCs. As to the kind of experiment: VSMC viability (MTS), compounds only. It is filed as cell-based. Particulars: for VSMC viability (MTS), % of medium control: compound only.
Data set [2] relates to primary human VSMCs. As to the kind of experiment: High-CaP medium-induced VSMC calcification. The conditions noted are these: for VSMC calcium deposition, % of high-CaP control: high-CaP medium, 5 days. The format is cell-based. The procedure:
Incubation of VSMCs in high-CaP medium induced cell monolayer calcification after 5 days (Fig. 3b). […] The effect became significant from 0.1 µM (OEG2)2-IP4 on, where a 54% reduction in calcification was observed compared to untreated high-CaP medium-exposed cells.
Primary human VSMCs (C-12533, PromoCell, Heidelberg, Germany) were cultured according to the manufacturer's guidelines in SMC-2 culture medium (C-22062, PromoCell) and used up to passage 7. For calcification experiments cells were seeded onto 24-well plates (TPP) at a density of 20,000 cells/well and left to attach for 48–72 h. Complete medium was M199 medium (31150022, Thermo Fischer Scientific), supplemented with 10% v/v FBS (10270106, Thermo Fisher Scientific, Waltham, MA), 1% v/v penicillin/streptomycin (15140122, Thermo Fisher Scientific), and 4 mM L-glutamine (25030024, Thermo Fisher Scientific)[80]. Calcification of cell monolayers was induced as described previously[81] by treatment with CPP2-supplemented (50 µg Ca/mL) medium with or without test compounds (1, 3, 10, 30, and 100 µM) at a volume of 1 mL/well for 48 h at 37 °C, 5% CO2. In a second assay, calcification was induced similar to previous experiments[56] by cell treatment with or without test compounds (0.01, 0.1, 1, 10, and 100 µM) in complete medium supplemented with calcium (2.7 mM) and phosphate (2.5 mM) (CaP medium) at a volume of 1 mL/well for 5 days, and treatment medium was replaced on alternate days.
Calcium deposition on cell monolayers was assessed qualitatively by staining for calcium with 2% w/v Alizarin Red S aqueous solution (pH 4.2) (05600, Fluka Analytical). Cell monolayers in 24-well plates were washed with PBS (10010015, Thermo Fischer), fixed in 10% v/v NBF in PBS (F8775, Sigma-Aldrich) for 45 min at RT, washed with milli-Q water, incubated for 3 min with 300 µL Alizarin Red S solution, washed with milli-Q, and images were acquired using a Axiovert 35 microscope (Zeiss, Carl Zeiss Microscopy GmbH, Jena, Germany) at ×100 magnification. Calcium quantitation was performed after washing cells with PBS and then decalcifying cell monolayers with 0.1 M HCl overnight at 4 °C. Acidic supernatants were centrifuged (10,000 × g, 4 °C, 10 min) and calcium content was assessed using the calcium colorimetric assay.

In data set [3] the target is T1, Melanocortin MC1 (Homo sapiens, UniProt Q01726).
T1 construct: purchased Eurofins Panlabs Discovery Services Taiwan, Ltd
As to the kind of experiment: Off-target 251100 (MC1). The format is binding. The procedure: (§1) The potential off-target activity of 10 µM (OEG2)2-IP4 was assessed against a panel of 87 enzymes, receptors, or ion channels that are used in standard safety pharmacology screens.
(§2) 3.2. Off-target screening assay
(§3) The experiments were conducted by a contract research organization (Eurofins Panlabs Discovery Services Taiwan, Ltd.) and details on the respective assays can be retrieved via the catalog number provided in Supplementary Table 11 from the company’s webpage
(§4) (https://www.eurofinsdiscoveryservices.com/). […]
(§5) At sacrifice the left tibia of animals of the rat model with dietary adenine/high-phosphate-induced uremia and VC was collected, fixed with 70% v/v EtOH and embedded in methyl methacrylate. The trabecular bone compartment is known to be the most metabolic active i.e. actively re-structured bone compartment in CKD. Therefore, histomorphometric and micro-computed tomography (µCT) analysis of bone was performed on the trabecular compartment. Tibial sections were Goldner-stained for histomorphometric analysis of the proximal metaphysis using the AxioVision Release 4.5 software, as […]
(§6) described previously5. […]

In data set [4] the target is T2, PPARγ (Homo sapiens, UniProt P37231).
T2 construct: purchased Eurofins Panlabs Discovery Services Taiwan, Ltd
As to the kind of experiment: Off-target 267500. The format is binding. The procedure:
as §1, §2, §3, §4, §5, §6

Data set [5] deals with T3, Serotonin (5-Hydroxytryptamine) 5-HT1A (Homo sapiens, UniProt P08908).
T3 construct: purchased Eurofins Panlabs Discovery Services Taiwan, Ltd
As to the kind of experiment: Off-target 271110. It is filed as binding. The procedure:
as §1, §2
The experiments were conducted by a contract research organization (Eurofins Panlabs Discovery
Services Taiwan, Ltd.) and details on the respective assays can be retrieved via the catalog number
provided in Supplementary Table 11 from the company’s webpage
as §4

For data set [6], the target named is T4, Serotonin (5-Hydroxytryptamine) 5-HT2B (Homo sapiens, UniProt P41595).
T4 construct: purchased Eurofins Panlabs Discovery Services Taiwan, Ltd
As to the kind of experiment: Off-target 271700. The format is binding. The procedure: as §1, §2, §3, §4, §5, §6

In general, inhibition refers to the drop in the measured response relative to a control, in per cent. A high value points to a strong effect.

T2 sequence (P37231 whole entry): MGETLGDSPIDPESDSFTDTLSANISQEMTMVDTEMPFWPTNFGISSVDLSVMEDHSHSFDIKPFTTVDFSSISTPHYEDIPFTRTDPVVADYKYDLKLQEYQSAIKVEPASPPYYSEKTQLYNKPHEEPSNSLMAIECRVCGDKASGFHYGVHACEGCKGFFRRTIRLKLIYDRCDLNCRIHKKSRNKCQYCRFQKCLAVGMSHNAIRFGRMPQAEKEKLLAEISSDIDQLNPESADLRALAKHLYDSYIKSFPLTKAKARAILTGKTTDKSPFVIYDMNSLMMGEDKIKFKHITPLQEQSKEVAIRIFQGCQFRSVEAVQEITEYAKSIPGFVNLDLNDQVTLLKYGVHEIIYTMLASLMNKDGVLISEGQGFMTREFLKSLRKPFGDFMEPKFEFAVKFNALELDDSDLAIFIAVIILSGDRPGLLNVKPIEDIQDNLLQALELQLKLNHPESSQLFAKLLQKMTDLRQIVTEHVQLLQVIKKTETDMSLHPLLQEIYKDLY
T4 sequence (P41595 whole entry): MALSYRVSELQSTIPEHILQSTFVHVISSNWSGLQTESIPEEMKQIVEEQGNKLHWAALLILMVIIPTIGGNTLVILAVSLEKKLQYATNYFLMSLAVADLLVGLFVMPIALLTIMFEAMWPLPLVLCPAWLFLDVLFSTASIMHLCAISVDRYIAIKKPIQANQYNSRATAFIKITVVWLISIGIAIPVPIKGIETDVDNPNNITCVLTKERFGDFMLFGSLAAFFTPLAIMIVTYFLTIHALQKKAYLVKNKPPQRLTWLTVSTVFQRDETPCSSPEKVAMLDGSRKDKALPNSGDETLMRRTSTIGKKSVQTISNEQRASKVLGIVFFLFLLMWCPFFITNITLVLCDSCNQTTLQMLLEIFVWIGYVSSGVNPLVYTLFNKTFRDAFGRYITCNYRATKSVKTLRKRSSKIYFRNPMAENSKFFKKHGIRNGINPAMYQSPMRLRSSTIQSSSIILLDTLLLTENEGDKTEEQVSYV
T1 sequence (Q01726 whole entry): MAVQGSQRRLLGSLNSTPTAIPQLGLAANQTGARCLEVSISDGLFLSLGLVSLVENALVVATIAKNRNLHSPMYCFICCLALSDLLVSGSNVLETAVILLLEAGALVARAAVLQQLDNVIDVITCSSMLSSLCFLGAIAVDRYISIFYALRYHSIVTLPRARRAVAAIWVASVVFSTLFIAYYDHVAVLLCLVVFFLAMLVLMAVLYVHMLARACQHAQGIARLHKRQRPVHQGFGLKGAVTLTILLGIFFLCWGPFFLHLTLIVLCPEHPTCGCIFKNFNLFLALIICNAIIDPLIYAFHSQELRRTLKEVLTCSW
T3 sequence (P08908 whole entry): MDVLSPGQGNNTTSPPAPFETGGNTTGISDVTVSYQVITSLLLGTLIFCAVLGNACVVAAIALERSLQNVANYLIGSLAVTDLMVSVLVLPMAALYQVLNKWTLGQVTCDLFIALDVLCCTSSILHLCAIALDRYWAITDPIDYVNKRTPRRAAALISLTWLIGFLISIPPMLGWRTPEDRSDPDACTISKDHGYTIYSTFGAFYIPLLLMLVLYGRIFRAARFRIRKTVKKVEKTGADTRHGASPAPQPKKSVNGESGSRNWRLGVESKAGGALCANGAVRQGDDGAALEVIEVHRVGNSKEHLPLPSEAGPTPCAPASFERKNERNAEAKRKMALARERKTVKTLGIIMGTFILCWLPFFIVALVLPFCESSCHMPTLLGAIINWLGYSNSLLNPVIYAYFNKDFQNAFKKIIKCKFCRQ

Turning to `O=P(O)(O)O[C@H]1[C@H](OP(=O)(O)O)[C@@H](OP(=O)(O)O)[C@H](OP(=O)(O)O)[C@@H](OP(=O)(O)O)[C@H]1OP(=O)(O)O` [IP6, myo-Inositol hexakisphosphate], the “VSMC viability (MTS), % of medium control” value is 107.6% and 117.7% and 127.9% in data set [1] (0.01 µM, replicates Fig. 3a); 101.2% and 116.5% and 123.9% in data set [1] (0.1 µM); 102.4% and 110.2% and 123.7% in data set [1] (1 µM); 107.1% and 105.1% and 128.6% in data set [1] (10 µM); 108.9% and 116.9% and 143.6% in data set [1] (100 µM). Moreover, the “VSMC calcium deposition, % of high-CaP control” value was 45.78% and 57.03% and 44% in data set [2] (0.01 µM, replicates Fig. 3b); 43.35% and 32.19% and 33.2% in data set [2] (1 µM); 27.4% and 34.12% and 27.96% in data set [2] (10 µM). In addition, in data set [2] (all doses studied (up to 100 µM)), the “reduction of VSMC mineralization” value is given as 50–70%.
Take `COCCOCCO[C@@H]1[C@@H](OP(=O)(O)O)[C@H](OCCOCCOC)[C@@H](OP(=O)(O)O)[C@@H](OP(=O)(O)O)[C@H]1OP(=O)(O)O` [(OEG2)2-IP4, 4,6-Di-O-(methoxy-diethyleneglycol)-myo-inositol-1,2,3,5-tetrakis(phosphate)]: the “VSMC viability (MTS), % of medium control” value in data set [1] (0.01 µM, replicates Fig. 3a) was 106.7% and 112.6% and 127.9%; in data set [1] (0.1 µM), 105.4% and 101.1% and 125.7%; in data set [1] (1 µM), 106.9% and 113.8%; in data set [1] (10 µM) it was 100.7% and 120.7%; in data set [1] (100 µM) it was 101.2% and 99.46% and 122.9%. Further, the “changes in cell viability” value in data set [1] (0.01–100 µM) was “did not lead to any changes in cell viability”. For the same compound, the “VSMC calcium deposition, % of high-CaP control” value in data set [2] (0.01 µM, replicates Fig. 3b) was 129.5% and 91.16% and 131.6%; in data set [2] (0.1 µM) it was 56.69% and 37.74% and 44.37%; in data set [2] (1 µM) it was 4.7% and 5.812% and 10.69%; in data set [2] (10 µM), 4.402% and -0.7134% and 6.025%; in data set [2] (100 µM), 4.139% and 1.382% and 4.723%. For the same compound, the “reduction in calcification vs untreated high-CaP medium-exposed cells” value in data set [2] (0.1 µM) is reported as 54%. Besides, the calcium deposition result in data set [2] (above 1 µM) is on record as “almost completely abrogated”. Besides, the inhibition at 10 µM in data set [3] came to 9%; in data set [4], 2%; in data set [5], 11%; in data set [6] it was 1%.
